This is an account of results in patent US10597366B2, “Aryl ethers and uses thereof” (Peloton Therapeutics, Inc., priority 2013, dated 2020).

Experiment [1] deals with 786-O-Hif-Luc cells (luciferase gene driven by multiple HIF responsive elements). The experiment can be described thus: Luciferase Assay. Format: cell-based. As to conditions: 24 h, read-out: Mean Luciferease EC50. The method, then:
A pool of infected cells were then selected against 2 μg/mL of puromycin (P8833, Sigma) for 10 days followed by limited dilution to select single clones.
Each concentration was tested in triplicate. After about 24 hours, luciferase activity was determined using ONE-Glo Luciferase Assay Reagent (E6110, Promega) following the manufacturer's recommended procedure. EC50 were calculated by using Dotmatics software.

Experiment [2] has as its system VEGFA concentration in medium of 786-O cells. Nature of the experiment: VEGF ELISA Assay. Format: cell-based. The following applies: Homo sapiens. The procedure: Each concentration had duplicated wells. About 20 hours later, medium was removed by suction and each well was supplied with 180 μL of growth medium. About 20 μl freshly-made 10× compound stocks were added to each well. […] The EC50 was calculated by GraphPad Prism using the dose-response-inhibition (four parameter) equation. The cell seeded plate was then subjected to CellTiter-Glo luminescence cell viability assay (Promega) by adding 50 μL of Celltiter Glo reagent into each well and shaking the plate for 8 minutes at 550 rpm (Thermomixer R, Eppendorf) then read luminescence signal in plate reader (3 second delay, 0.5 second/well integration time, Synergy 2 multi Detection Microplate reader) immediately.

Experiment [3] concerns HIF-2α HIS TAG-PASB Domain. Nature of the experiment: HIF-2α Scintillation Proximity Assay (SPA). Format: binding. As to conditions: compounds listed by structure and IUPAC name. The method, then: The percent inhibition was determined and IC50 values were calculated using the Dotmatics system based on the following equation: % inhibition=[(high control sample)/(high control low control)]×100.

Where [4] appears, read: 786-O-Hif-Luc cells, about 24 hours.
The mark [5] stands for this setting: 786-0, 786-O cells, read-out: Mean VEGF ELISA EC50.
Setting [6] is: 786-0, read-out: Mean VEGF ELISA EC50.

Like-named read-outs stand apart in the source and are kept apart here.

For the compound `N#Cc1cc(F)cc(Oc2ccc(S(=N)(=O)CF)c3c2CC(F)(F)[C@H]3O)c1` (single isomer, unassigned) [Compound 274], the half-maximal effective concentration (EC50) in experiment [1] (setting [4]) was determined as 190 nM; in experiment [2] (setting [5]), 1440 nM. For the compound `O=S(=O)(c1ccc(Oc2ccc(F)c(F)c2)c2c1[C@H](O)C(F)(F)C2)C(F)(F)F` [Compound 233, (S)-4-(3,4-Difluorophenoxy)-2,2-difluoro-7-((trifluoromethyl)sulfonyl)-2,3-dihydro-1H-inden-1-ol], the half-maximal effective concentration (EC50) in experiment [1] (setting [4]) was 13 nM; in experiment [2] (setting [5]) it was 15 nM.

In the case of `O=[N+]([O-])c1c(Oc2cc(F)cc(Cl)c2)ccc(C(F)(F)F)c1Cl` [Compound 203, 2-Chloro-4-(3-chloro-5-fluorophenoxy)-3-nitro-1-(trifluoromethyl)benzene], the concentration for a half-maximal effect (EC50) was 630 nM in experiment [1] (setting [4]) and 700 nM in experiment [2] (setting [5]). Take `N#Cc1ccc(Oc2cc(F)cc(F)c2)c2c1[C@H](O)C(F)(F)C2` [Compound 67, (S)-7-(3,5-Difluorophenoxy)-2,2-difluoro-3-hydroxy-2,3-dihydro-1H-indene-4-carbonitrile]: the EC50 in experiment [2] (setting [6]) amounted to 220 nM.

In the case of `CS(=O)(=O)c1ccc(Oc2cc(F)cc(Br)c2)c2c1[C@H](O)C(F)(F)C2` [Compound 304, (S)-4-(3-bromo-5-fluorophenoxy)-2,2-difluoro-7-(methylsulfonyl)-2,3-dihydro-1H-inden-1-ol], the EC50 came to 22 nM in experiment [1] (setting [4]) and 62 nM in experiment [2] (setting [5]). For the compound `O=S(=O)(c1ccc(Oc2cc(F)cc(Cl)c2)c2c1C(O)CC2)C(F)F` (stereo not shown) [Compound 17, 4-(3-chloro-5-fluorophenoxy)-7-((difluoromethyl)sulfonyl)-2,3-dihydro-1H-inden-1-ol], the EC50 in experiment [2] (setting [6]) is 160 nM.

As to `N#Cc1cc(F)cc(Oc2ccc(S(=O)(=O)C(F)(F)F)c3c2CC(F)(F)[C@H]3O)c1` [Compound 185, (S)-3-((2,2-Difluoro-1-hydroxy-7-((trifluoromethyl)sulfonyl)-2,3-dihydro-1H-inden-4-yl)oxy)-5-fluorobenzonitrile], the EC50 is 3 nM in experiment [1] (setting [4]) and 4 nM in experiment [2] (setting [5]). On to `N#Cc1cc(F)cc(Oc2ccc(S(=O)(=O)C(F)F)c(CO)c2Br)c1` [Compound 80, 3-(2-Bromo-4-((difluoromethyl)sulfonyl)-3-(hydroxymethyl)phenoxy)-5-fluorobenzonitrile], for which the EC50 in experiment [1] (setting [4]) stood at 310 nM; in experiment [2] (setting [5]), 630 nM. Taken in the same sequence, the figures for `O=S(=O)(c1ccc(Oc2cc(F)cc(Cl)c2)c2c1C(O)C(F)(F)C2)C(F)F` (stereo not shown) [Compound 8, 4-(3-chloro-5-fluoro-phenoxy)-7-(difluoromethylsulfonyl)-2,2-difluoro-indan-1-ol] were 17 nM and 33 nM.

Consider `CS(=O)(=O)c1ccc(Oc2cc(Cl)cc(C#N)c2)c2c1[C@H](O)C(F)(F)C2` [Compound 234, (S)-3-Chloro-5-((2,2-difluoro-1-hydroxy-7-(methylsulfonyl)-2,3-dihydro-1H-inden-4-yl)oxy)benzonitrile], for which the concentration giving a half-maximal response (EC50) in experiment [1] stood at 41 nM; in experiment [2] (setting [6]), 50 nM. For `N#Cc1cc(F)cc(Oc2ccc(C(F)(F)F)c3c2CC(F)(F)[C@H]3O)c1` [Compound 273, 3-[(1S)-2,2-Difluoro-1-hydroxy-7-(trifluoromethyl)indan-4-yl]oxy-5-fluoro-benzonitrile], the EC50 in experiment [1] (setting [4]) was found to be 4.6 nM; in experiment [2] (setting [5]), 6.2 nM.

As for `N#Cc1cncc(Oc2ccc(C(F)(F)F)c3c2CC(F)(F)[C@H]3O)c1` [Compound 303, 5-[(1S)-2,2-difluoro-1-hydroxy-7-(trifluoromethyl)indan-4-yl]oxypyridine-3-carbonitrile], the half-maximal effective concentration (EC50) in experiment [1] (setting [4]) turned out to be 35 nM; in experiment [2] (setting [5]) it was 64 nM. Turning to `O=S(=O)(c1ccc(Oc2cc(F)cc(Cl)c2)c(Br)c1CO)C(F)(F)F` [Compound 102, (2-Bromo-3-(3-chloro-5-fluorophenoxy)-6-((trifluoromethyl)sulfonyl)phenyl)methanol], the EC50 in experiment [2] (setting [5]) amounted to 640 nM. Consider `O=S(=O)(c1ccc(Oc2cc(F)cc(Cl)c2)c(Br)c1Cl)C(F)(F)F` [Compound 179, 2-Bromo-3-chloro-1-(3-chloro-5-fluorophenoxy)-4-((trifluoromethyl)sulfonyl)benzene], for which the EC50 in experiment [2] (setting [5]) was 1600 nM. The same measure, in the same setting: the same measure for `N#Cc1cc(S(=O)(=O)C(F)F)ccc1Oc1cc(F)cc(Cl)c1` [Compound 133, 2-(3-Chloro-5-fluorophenoxy)-5-((difluoromethyl)sulfonyl)benzonitrile]: 1870 nM. As to `O=C(NCCO)c1c(S(=O)(=O)C(F)F)ccc(Oc2cc(F)cc(Cl)c2)c1C(F)F` [3-(3-chloro-5-fluoro-phenoxy)-2-(difluoromethyl)-6-(difluoromethylsulfonyl)-N-(2-hydroxyethyl)benzamide], the IC50 in experiment [3] was > 100000 nM. Consider `CS(=O)(=O)c1ccc(Oc2cc(F)cc(F)c2)c2c1C(C#N)CC2` (stereo not shown) [4-(3,5-difluorophenoxy)-7-methylsulfonyl-indane-1-carbonitrile], for which the IC50 in experiment [3] is > 100000 nM. As to `OC1CCc2c(Oc3cc(F)cc(Cl)c3)cccc21` (stereo not shown) [4-(3-chloro-5-fluoro-phenoxy)indan-1-ol], the concentration for half-maximal inhibition (IC50) in experiment [3] is > 100000 nM. Same read-out and setting: to `N=S(=O)(c1ccc(Cl)c(Br)c1Oc1cc(F)cc(Cl)c1)C(F)(F)F` (stereo not shown) [[3-bromo-4-chloro-2-(3-chloro-5-fluoro-phenoxy)phenyl]-imino-oxo-(trifluoromethyl)-λ^6-sulfane] belongs > 100000 nM; to `CNC(=O)/C=C/c1c(S(=O)(=O)C(F)(F)F)ccc(Oc2cc(F)cc(C#N)c2)c1C` [(E)-3-[3-(3-cyano-5-fluoro-phenoxy)-2-methyl-6-(trifluoromethylsulfonyl)phenyl]-N-methyl-prop-2-enamide], > 100000 nM.

Regarding `CN(C)[S+]([O-])c1ccc(Oc2cc(F)cc(Cl)c2)c(Br)c1` (stereo not shown) [3-bromo-4-(3-chloro-5-fluoro-phenoxy)-N,N-dimethyl-benzenesulfinamide], in experiment [3], the half-inhibitory concentration (IC50) is > 100000 nM. For `O=[N+]([O-])c1c(F)cccc1Oc1cccc(Cl)c1` [1-(3-chlorophenoxy)-3-fluoro-2-nitro-benzene], in experiment [3], the IC50 was > 100000 nM. On to `O=C1CCc2c(Oc3cc(F)cc(Cl)c3)cccc21` [4-(3-chloro-5-fluoro-phenoxy)indan-1-one], for which the IC50 in experiment [3] is > 100000 nM. With `N#Cc1cccc(Oc2cc(F)cc(Cl)c2)c1Br` [2-bromo-3-(3-chloro-5-fluoro-phenoxy)benzonitrile], the IC50 in experiment [3] was > 100000 nM. On the same count and under the same terms, to `O=S(=O)(c1ccc(Oc2cc(F)cc(F)c2)c2c1C(O)CC2)N1CCOCC1` (stereo not shown) [4-(3,5-difluorophenoxy)-7-morpholinosulfonyl-indan-1-ol] belongs > 100000 nM.

Regarding `O=S(=O)(c1ccc(Oc2cc(F)cc(Cl)c2)c(Cl)c1CNCC1CCOC1)C(F)F` (stereo not shown) [1-[2-chloro-3-(3-chloro-5-fluoro-phenoxy)-6-(difluoromethylsulfonyl)phenyl]-N-(tetrahydrofuran-3-ylmethyl)methanamine], the IC50 in experiment [3] was > 100000 nM.

For the compound `C[C@H]1Cc2c(Oc3cc(F)cc(C#N)c3)ccc(S(C)(=O)=O)c2[C@H]1O` [3-fluoro-5-(((1S,2S)-1-hydroxy-2-methyl-7-(methylsulfonyl)-2,3-dihydro-1H-inden-4-yl)oxy)benzonitrile], the IC50 in experiment [3] was > 100000 nM. On the same count and under the same terms, the same measure for `CS(=O)(=O)c1cccc(Oc2ccc(S(=O)(=O)C(F)(F)F)c3c2CC(F)(F)[C@H]3O)c1` [(1S)-2,2-difluoro-4-(3-methylsulfonylphenoxy)-7-(trifluoromethylsulfonyl)indan-1-ol]: > 100000 nM. Take `O=C(O)c1c(S(=O)(=O)C(F)F)ccc(Oc2cc(F)cc(Cl)c2)c1Br` [2-bromo-3-(3-chloro-5-fluoro-phenoxy)-6-(difluoromethylsulfonyl)benzoic acid]: the IC50 in experiment [3] was > 100000 nM.

Consider `Cc1c(Oc2cc(F)cc(C#N)c2)ccc(S(=O)(=O)C(F)(F)F)c1C(O)CO` (stereo not shown) [3-[3-(1,2-dihydroxyethyl)-2-methyl-4-(trifluoromethylsulfonyl)phenoxy]-5-fluoro-benzonitrile], for which the half-maximal inhibitory concentration (IC50) in experiment [3] is > 100000 nM. Turning to `O=S(=O)(c1ccc(Oc2cc(F)cc(Cl)c2)c2c1[C@H](O)CC2)C(F)F` [Compound 1, (R)-4-(3-chloro-5-fluorophenoxy)-7-((difluoromethyl)sulfonyl)-2,3-dihydro-1H-inden-1-ol], in experiment [2] (setting [6]), the EC50 came out at 250 nM. `CS(=O)(=NC#N)c1ccc(Oc2cc(F)cc(C#N)c2)c2c1[C@H](O)C(F)(F)C2` (stereo partly shown) [Compound 240]: the concentration giving a half-maximal response (EC50) in experiment [2] (setting [5]) was 81 nM. As to `NC(=O)c1cc(F)cc(Oc2ccc(S(=O)(=O)C(F)(F)F)cc2Br)c1` [3-[2-bromo-4-(trifluoromethylsulfonyl)phenoxy]-5-fluoro-benzamide], the 50% inhibitory concentration (IC50) in experiment [3] was > 100000 nM. For `CC1Cc2c(Oc3cc(F)cc(C#N)c3)ccc(S(C)(=O)=O)c2C1=O` (stereo not shown) [3-fluoro-5-((2-methyl-7-(methylsulfonyl)-1-oxo-2,3-dihydro-1H-inden-4-yl)oxy)benzonitrile], in experiment [3], the IC50 is > 100000 nM. Take `N#Cc1cc(F)cc(Oc2ccc(Cl)c3c2CCC3)c1` [3-(7-chloroindan-4-yl)oxy-5-fluoro-benzonitrile]: the concentration for half-maximal inhibition (IC50) in experiment [3] was > 100000 nM.

In the case of `O=C(NO)c1c(S(=O)(=O)C(F)F)ccc(Oc2cc(F)cc(Cl)c2)c1Br` [2-bromo-3-(3-chloro-5-fluoro-phenoxy)-6-(difluoromethylsulfonyl)benzenecarbohydroxamic acid], in experiment [3], the IC50 is > 100000 nM.
